Measured values: patent publication US12077483B2, “Modified amine lipids” (Intellia Therapeutics, Inc., priority 2018, dated 2024)

How the values were obtained:
mouse TTR gene [1] = test: In vivo editing in mouse liver, LNP with Cas9 mRNA and sgRNA G502, NGS; settings: G502, sgRNA:Cas9 mRNA 1:2 w/w, Example 119
Protocol: (§1) CD-1 female mice, ranging from 6-10 weeks of age were used in each study. Animals were weighed and grouped according to body weight for preparing dosing solutions based on group average weight. LNPs were dosed via the lateral tail vein in a volume of 0.2 mL per animal (approximately 10 mL per kilogram body weight). The animals were periodically observed for adverse effects for at least 24 hours post dose.
(§2) For studies measuring in vivo editing in liver, CD-1 female mice were dosed at 0.1 mpk unless otherwise noted. Animals were euthanized at 6 or 7 days by exsanguinationvia cardiac puncture under isoflourane anesthesia. Liver tissue was collected from each animal for DNA extraction and analysis. Blood was collected into serum separator tubes or into tubes containing buffered sodium citrate for plasma as described herein. Cohorts of mice were measured for editing by Next-Generation Sequencing (NGS).
(§3) In brief, to quantitatively determine the efficiency of editing at the target location in the genome, genomic DNA was isolated and deep sequencing was utilized to identify the presence of insertions and deletions introduced by gene editing.
PCR primers were designed around the target site (e.g., B2M), and the genomic area of interest was amplified. […] The reads were aligned to the relevant reference genome (e.g., GRCm38) after eliminating those having low quality scores. The resulting files containing the reads were mapped to the reference genome (BAM files), where reads that overlapped the target region of interest were selected and the number of wild type reads versus the number of reads which contain an insertion, substitution, or deletion was calculated.
(§4) The editing percentage (e.g., the “editing efficiency” or “percent editing”) is defined as the total number of sequence reads with insertions or deletions over the total number of sequence reads, including wild type.
We assessed in vivo editing efficiency for materials delivered with formulations with variable tail lengths through in vivo editing experiments. […]

[2] = Tolerability in rats: liver enzyme panel 24 hours post dose; format: in vivo, rat; settings: Sprague Dawley female rats, 6 mg/kg, serum
Protocol: For efficacy, Sprague Dawley female rats were dosed i.v. at 0.1 mpk or 0.03 mpk. 6-7 days post dose, rats were euthanized by CO2 asphyxiation. Blood was collected into serum separator tubes. Liver biopsy processed for gDNA and assessed for editing by NGS methods described in Example 115. Results are shown in Table 11 and FIGS. 12A and 12B. For tolerability, Sprague Dawley female rats were dosed at 6 mpk and 24 hours post dose the animals were euthanized by CO2 asphyxiation. Blood was collected into serum separator tubes and sent to an external CRO for quantitation of liver enzymes via a liver enzyme panel.

TTR in HUH7 cells = test: In vitro editing in HUH7 cells, LNP with Cas9 mRNA and sgRNA G000502, NGS; format: cell-based, human; settings: Table 14; 2000 ng RNA per well, cells harvested 6 hours post-transfection, biological duplicate, G000502 target locus
Protocol: A series of compounds based on Compound 46 that vary by the inclusion of a C4-12 alkyl at the R^3 position of Formula (IA) (as illustrated in FIG. 13A) were tested for in vitro editing. The human hepatocellular carcinoma cell line […] (Japanese Collection of Research Bioresources Cell Bank, Cat. JCRB0403) was cultured in DMEM media supplemented with 10% fetal bovine serum and 1% Penicillin-Streptomycin. Cells were plated at a density of 20,000 cells/well in a 96-well plate 24 hours prior to transfection (˜80% confluent at time of transfection). The LNPs were formulated at a 1:2 w/w ratio of sgRNA and Cas9 mRNA using the cross flow procedure with lipid molar compositions as described in Table 13 at an N/P ratio of 6.0. LNP compositions were analyzed for average particle size, polydispersity (pdi), total RNA content and encapsulation efficiency of RNA as described in Example 115. Analysis of average particle size, polydispersity (PDI), total RNA content and encapsulation efficiency of RNA are shown in Table 13. LNPs were diluted into media, incubated for 5 minutes at 37 C and pipetted onto cells at a dose of 2000 ng RNA per well. Each condition was assayed in biological duplicate. Cells were harvested post-transfection at 6 hours. Genomic DNA was extracted using 50 μL/well BuccalAmp DNA Extraction solution (Epicentre, Cat. QE09050) according to manufacturer's protocol. All DNA samples were subjected to PCR and subsequent NGS analysis for editing at the G000502 target locus, as described above. As shown in Table 14 and FIG. 13B, all compounds tested were efficacious for in vitro editing.

mouse TTR gene [3] = test: In vivo editing in mouse liver, LNP with Cas9 mRNA and sgRNA G282, NGS; settings: Table 7, G00282, CD-1 female mice i.v., liver
Protocol: LNPs were prepared using various amine lipids in a 4-component lipid system consisting of an ionizable lipid (e.g. an amine lipid), DSPC, cholesterol and PEG-2k-DMG. In assays for percent liver editing in mice, Cas9 mRNA and chemically modified sgRNA targeting a mouse sequence were formulated in LNPs, at either a 1:1 w/w ratio or a 1:2 w/w ratio.
The lipid components were dissolved in 100% ethanol with the lipid component molar ratios described below. The chemically modified sgRNA and Cas9 mRNA were combined and dissolved in 25 mM citrate, 100 mM NaCl, pH 5.0, resulting in a concentration of total RNA cargo of approximately 0.45 mg/mL. The LNPs were formulated with an N/P ratio of about 6, with the ratio of chemically modified sgRNA: Cas9 mRNA at either a 1:1 or 1:2 w/w ratio as described below.
as §1, §2, §3
PCR primers were designed around the target site (e.g., B2M), and the genomic area of interest was amplified. Additional PCR was performed according to the manufacturer's protocols (Illumina) to add the necessary chemistry for sequencing. The amplicons were sequenced on an Illumina MiSeq instrument. The reads were aligned to the relevant reference genome (e.g., GRCm38) after eliminating those having low quality scores. The resulting files containing the reads were mapped to the reference genome (BAM files), where reads that overlapped the target region of interest were selected and the number of wild type reads versus the number of reads which contain an insertion, substitution, or deletion was calculated.
as §4
We assessed in vivo editing efficiency for materials delivered with formulations including various amine lipid compounds. Editing was measured using either G282 (SEQ ID No: 1) which targets the mouse TTR gene or G650 (SEQ ID No. 2) which targets the mouse B2M gene. Lipids described above were assessed for efficacy through in vivo editing experiments. LNPs were formulated at a 1:1 w/w ratio of sgRNA to Cas9 mRNA, and at an N/P ratio of about 6. Molar concentrations of lipids in the lipid component of the LNPs are expressed as mol % amine lipid/DSPC/cholesterol/PEG-2k-DMG, e.g. 50/10/38.5/1.5. The final LNPs were characterized to determine the encapsulation efficiency, polydispersity index, and average particle size according to the analytical methods provided above. Analysis of average particle size, polydispersity (PDI), total RNA content and encapsulation efficiency of RNA are shown in Table 2.
To assess whether the editing was dose responsive, experiments were performed in vivo at various LNP dose levels. […]

mouse B2M gene = test: In vivo editing in mouse liver, LNP with Cas9 mRNA and sgRNA G650, NGS; settings: Table 3; guide G650; CD-1 female mice, 0.1 mpk i.v., liver at 6 or 7 days; Exp. 2-7
In short: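 Female CD-1 mice given LNPs (amine lipid/DSPC/cholesterol/PEG-2k-DMG; N/P ~6; sgRNA G650:Cas9 mRNA 1:1 w/w) i.v. at 0.1 mpk unless noted. Liver collected day 6 or 7; B2M editing = indel reads over total reads by amplicon NGS.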

SMILES | efficacy for in vivo editing (in words) (mouse TTR gene [1]) | ALP (U/L) [2] | ALT (U/L) [2] | AST (U/L) [2] | Creatine kinase (U/L) [2] | GGT (U/L) [2] | Total Bilirubin [2] | Editing (TTR in HUH7 cells) | Editing Mean % Indel (mouse TTR gene [3]; dose 0.1 mpk) | Editing Mean % Indel (mouse TTR gene [3]; dose 0.3 mpk) | Editing Mean % Indel (mouse B2M gene)
CCCCC/C=C\C/C=C\CCCCCCCC(=O)OCC(COC(=O)CCCCCCC/C=C\C/C=C\CCCCC)OC(=O)CCC(CCCCCC)OC(=O)NCCN1CCCC1 (racemic) [Compound 50, 2-((4-(((2-(pyrrolidin-1-yl)ethyl)carbamoyl)oxy)decanoyl)oxy)propane-1,3-diyl (9Z,9′Z,12Z,12′Z)-bis(octadeca-9,12-dienoate)] | efficacious | 508.6 U/L | 250.8 U/L | 820.8 U/L | 272 U/L | 11 U/L | 0.4 mg/dL | 64.3% |  |  | 
CCCCC/C=C\C/C=C\CCCCCCCC(=O)OCC(COC(=O)CCCCCCC/C=C\C/C=C\CCCCC)OC(=O)CCC(CCCCCCCC)OC(=O)NCCN(C)CC (stereo not shown) [Compound 34, 2-((4-(((2-(ethyl(methyl)amino)ethyl)carbamoyl)oxy)dodecanoyl)oxy)propane-1,3-diyl (9Z,9′Z,12Z,12′Z)-bis(octadeca-9,12-dienoate)] |  | 542 U/L | 179.6 U/L | 349.6 U/L | 184.8 U/L | 3.4 U/L | 0.2 mg/dL | 49.0% | 54.9% | 68.3% | 44.8%
CCCCC/C=C\C/C=C\CCCCCCCC(=O)OCC(COC(=O)CCCCCCC/C=C\C/C=C\CCCCC)OC(=O)CCC(CCCCCCCC)OC(=O)NCCN1CCCC1 (stereo not shown) [Compound 51, 2-((4-(((2-(pyrrolidin-1-yl)ethyl)carbamoyl)oxy)dodecanoyl)oxy)propane-1,3-diyl (9Z,9′Z,12Z,12′Z)-bis(octadeca-9,12-dienoate)] | efficacious |  |  |  |  |  |  | 69.0% |  |  | 
CCCCC/C=C\C/C=C\CCCCCCCC(=O)OCC(COC(=O)CCCCCCC/C=C\C/C=C\CCCCC)OC(=O)CCC(CCCCC)OC(=O)NCCN1CCCC1 (stereo not shown) [Compound 72, 2-((4-(((2-(pyrrolidin-1l-yl)ethyl)carbamoyl)oxy)nonanoyl)oxy)propane-1,3-diyl (9Z,9′Z,12Z,12′Z)-bis(octadeca-9,12-dienoate)] | efficacious |  |  |  |  |  |  | 65.8% |  |  | 
